Laboratory results taken from publication PMC6028838, “A new terpene coumarin microbial transformed by Mucor polymorphosporus induces apoptosis of human gastric cancer cell line MGC-803” (Archives of Pharmacal Research, 2018).

Legend:
[1] = tested on: human gastric cancer cell line MGC-803; experiment: MTT antiproliferation assay, MGC-803 cells; type: cell-based; details: 48 h incubation, mean ± SD of triplicate experiments
Procedure: (§1) The human gastric cancer cell line MGC-803 and human normal gastric epithelial cell line GES-1 were cultured in DMEM containing penicillin (100 U/mL), streptomycin (100 μg/mL), and 10% FBS at 37 °C with 5% CO2. Cells that used in experiments were passaged at least three times.
(§2) Cells were seeded in 96-well plates at a density of 5 × 10^4/well and cultured at 37 °C with 5% CO2 for 24 h. And then, compounds (1–5) in various concentrations were introduced with incubation for another 48 h. Finally, 10 μL MTT (5 mg/mL) was added to each well. After 4 h incubation, the medium was removed and 150 μL DMSO was added. Absorbance was read on a Microplate Reader at 570 nm (Bio Tek, Thenceforth, USA) (Li et al. [2014]). The MTT assay aims to evaluate the antiproliferative effects of the test compounds in MGC-803 cells and the cytotoxic effects in GES-1 cells.

[2] = tested on: human normal gastric epithelial cell line GES-1; experiment: MTT cytotoxicity assay, GES-1 cells; type: cell-based; details: GES1, 48 h incubation, mean ± SD of triplicate experiments
Procedure: as §1, §2

MGC-803 cells = experiment: Annexin V-FITC/PI apoptosis assay by flow cytometry; type: cell-based, human; details: MGC-803 cells, 1.0, 2.0, 4.0 μM, 24 h, compared with the control group
Procedure: The apoptosis effect of 2′-Z auraptene A (2) in MGC-803 cells was examined using the Annexin V-FITC/PI detection kit, according to the description of previously reported (Bakar et al. [2016]). Briefly, cells were seeded and treated with compound 2 (0, 1.0, 2.0, 4.0 μM) for 24 h. Cells were harvested and washed twice with cold PBS before incubating with annexin V and PI for 30 min in dark. And then the stained cells were detected and analyzed on FACS Calibur flow cytometry.

[3] = tested on: Bax, Bcl-2 and cleaved caspase-3 in MGC-803 cells; experiment: Western blot of apoptosis-related proteins; type: cell-based, human; details: MGC-803 cells, 1.0, 2.0, 4.0 μM, 24 h
Procedure: The detection of levels of apotosis-related proteins in MGC-803 cells was performed according to the reported western blot method (Zhang et al. [2015a]). Briefly, cells were treated with compound 2 (0, 1.0, 2.0, 4.0 μM) for 24 h and then harvested to detect the protein concentration using the BCA method. Total cellular protein was separated by an SDS/PAGE gel and transferred onto PVDF membranes using a semidry electroblotter. The membrane was blocked with non-fat milk solution (5%) for 1 h, and incubated subsequently with primary antibody at 4 °C overnight. Then TBST was used to wash the primary antibody and incubated with secondary antibody for 1 h at room temperature. Protein bands were visualized by enhanced chemiluminescence (ECL) and β-actin was used as a normalizing control.

[4] = Solubility in aqueous media; type: physicochemical; details: thermodynamic equilibrating conditions, compared with 2′-Z auraptene

| Structure (SMILES) | IC50 [1] [µM] | limitation of solubility in aqueous media [4] | IC50 [2] [µM] | cellular apoptotic rates (MGC-803 cells) | level of Bax protein [3] | level of Bcl-2 protein [3] | level of cleaved caspase-3 protein [3] |
| --- | --- | --- | --- | --- | --- | --- | --- |
| CC(C)=CCC/C(C)=C\COc1ccc2ccc(=O)oc2c1 [Compound 1, (Z)-7-((3′,7′-dimethylocta-2′,6′-dien-1′-yl)oxy)-2H-chromen-2-one] | 10.4 ± 0.86 | – | 57 ± 2.31 | – | – | – | – |
| C/C(=C/CC(O)/C(C)=C\COc1ccc2ccc(=O)oc2c1)CO (stereo not drawn) [Compound 4, 7-(((2′Z,6′Z)-4′,9′-hydroxy-3′,7′-dimethylocta-2′,6′-dien-1′-yl)oxy)-2H-chromen-2-one] | 6.78 ± 2.06 | – | 33.8 ± 1.46 | – | – | – | – |
| C/C(=C/C(O)C/C(C)=C\COc1ccc2ccc(=O)oc2c1)CO (stereo not drawn) [Compound 5, 7-(((2′Z,6′Z)-5′,9′-hydroxy-3′,7′-dimethylocta-2′,6′-dien-1′-yl)oxy)-2H-chromen-2-one] | 10.8 ± 1.83 | – | 35.5 ± 2.21 | – | – | – | – |

Now those with a lower IC50 [1], led by results:

| IC50 [1] [µM] | limitation of solubility in aqueous media [4] | Structure (SMILES) | IC50 [2] [µM] | cellular apoptotic rates (MGC-803 cells) | level of Bax protein [3] | level of Bcl-2 protein [3] | level of cleaved caspase-3 protein [3] |
| --- | --- | --- | --- | --- | --- | --- | --- |
| 4.75 ± 1.02 | – | C/C(=C/CC/C(C)=C\COc1ccc2ccc(=O)oc2c1)CO [Compound 3, 7-(((2′Z,6′Z)-9′-hydroxy-3′,7′-dimethylocta-2′,6′-dien-1′-yl)oxy)-2H-chromen-2-one] | 25.6 ± 2.12 | – | – | – | – |
| 0.78 ± 0.13 | improved | C/C(=C/COc1ccc2ccc(=O)oc2c1)CCCO [Compound 2, 2′-Z auraptene A] | 46 ± 3.11 | increased significantly in a dose-dependent manner | increase | reduction | increase |
